The values below come from patent US6943164B2, “Pharmaceutical solutions of levosimendan” (Orion Corporation, priority 1999, dated 2005).

Values after ≈ are worked out from the molar mass of the structure shown.

The nature of series [1]: Solubility of levosimendan in phosphate buffer at room temperature. The format is physicochemical. Particulars: aqueous buffer. As to the method:
(§1) At room temperature the solubility of levosimendan in phosphate buffer is 0.4 mg/ml (pH 7.4), 0.03 mg/ml (pH 6) and 0.02 mg/ml (pH 2). Thus, the water solubility of levosimendan decreases quite sharply when pH is lowered below neutral. […] Such solutions are chemically and physically stable over an extended period of time and, therefore, they are particularly suitable for pharmaceutical use.

The nature of a further series: pKa of levosimendan. The format is physicochemical. As to the method:
as §1

Broadly, the solubility is the dissolved amount per volume that the medium holds. A high value points to a readily soluble substance. In general, pKa refers to the pH at which an ionisable group is half protonated. The low end stands for a group that gives up its proton readily, the high end for a group that holds its proton tightly. With `CC1CC(=O)NN=C1c1ccc(NN=C(C#N)C#N)cc1` (single isomer, unassigned; (-)) [levosimendan, (−)-[[4-(1,4,5,6-tetrahydro-4-methyl-6-oxo-3-pyridazinyl)phenyl]hydrazono]propanedinitrile], the solubility was determined as 20 µg/mL (≈ 71.4 µM) in series [1] (pH 2), 30 µg/mL (≈ 107 µM) in series [1] (pH 6) and 400 µg/mL (≈ 1430 µM) in series [1] (pH 7.4). Further, the pKa in the series “pKa of levosimendan” came to 6.26.
